Data: patent publication US20160045531A1, “COMBINATION THERAPY FOR TREATING CANCER” (EPIZYME, INC., priority 2014, published 2016)

Assays:
[1] = tested on: MV4-11 (MLL-AF4) cell line; assay: Combination proliferation study with Compound A2 (Example 1), MV4-11; format: cell-based, human; conditions: 7 Day Cotreatment; Chou-Talalay CI
Description: (§1) The acute myelogenous leukemia cell lines MV4-11 (MLL-AF4) and MOLM-13 (MLL-AF9) were obtained from American Type Culture Collection (ATCC; Rockville, Md.) and Deutsche Sammlung von Mikroorganismen and Zellkulturen (DSMZ; Braunschweig, Germany) respectively. […] Further, strong synergism is achieved when the CI value falls below 0.3.

[2] = tested on: MOLM-13 (MLL-AF9) cell line; assay: Combination proliferation study with Compound A2 (Example 1), MOLM-13; format: cell-based, human; conditions: 7 Day Cotreatment; Chou-Talalay CI
Description: as §1

[3] = tested on: MOLM-13 cells; assay: Flow cytometric analysis of cell cycle and Annexin V, MOLM-13; format: cell-based, human; conditions: MOLM-13
Method: (§2) On Day 0 MOLM-13 cells are seeded at 3,000 cells/mL. On Day 7 and Day 10 MOLM-13 cells are counted and reseeded at 50,000 cells/mL. […] On Day 10 They were redosed again. On Day 14 the experiment was terminated.
To evaluate the fraction of cells in each cell cycle, flow cytometric analysis was performed. FACS analysis for detection of cell death by apoptosis, and cell cycle was performed.
Samples were analyzed using the Guava EasyCyte Plus System (Millipore). Cells for cell cycle analysis were pelleted by centrifugation at 200×g for 5 minutes at 4° C., washed twice with ice cold PBS then fixed with 70% ice cold ethanol. All samples were analyzed together at end of experiment. Following fixation cells were washed with PBS and stained with the Guava cell cycle reagent (Millipore 4500-0220) for 30 minutes. Samples were analyzed using the Guava EasyCyte Plus System (Millipore).

[4] = tested on: MV4-11 (MLL-AF4); assay: Proliferation assay and calculation of synergism (Example 5), MV4-11; format: cell-based, human; conditions: for Combination with Compound A2, MV4-11 (MLL-AF4): 7 Day Cotreatment Model, Chou-Talalay CI; for Combination with Compound A2, pre-treatment model with washout, MV4-11: Compound A2 washed out prior to the addition of the SOC agent; for Combination with Compound A2, pre-treatment model, MV4-11: no Compound A2 washout
Method: (§5) MV4-11 cells were maintained in IMDM supplemented with 10% fetal bovine serum. […] They were cultured in flasks or plates in a humidified 5% CO2 atmosphere.
(§6) Proliferation studies were performed using MOLM-13, MV4-11 and SKM-1 cell lines in vitro to evaluate the cancer cell killing effect of a combination of two agents together on cell growth. Initial proliferation studies were performed to determine the IC50 values of a given compound in each cell line. The cell counts were measured by ATP quantitation using the Promega Cell Titer Glo kit and luminescence values correspond to the amount of ATP in a given well.
(§7) These studies were performed to evaluate both the combinatorial effect of compounds on cell killing and the durability of the effect by washing out one of the agents.
(§8) Compounds evaluated for synergy in the co-treatment phase were tested in a range which was bracketed around the IC50's. The compounds were plated to a 96 well plate in a matrix format which includes increasing concentrations of each drug in the combination in a constant ratio, in addition to the effect of each compound alone in the study. […] Maximum and minimum inhibition (DMSO alone) controls were used in each plate to calculate fraction affected (Fa) of a test well. DMSO concentration was kept at 0.1% v/v. The drug combination analysis was performed utilizing the Chou-Talalay method. Synergy was determined using the software package Calcusyn by Biosoft. The combination index (CI) is the term used to describe the level of synergy or antagonism in a given test system. A combination index less than one indicates synergy, and a CI greater than one indicates antagonism.
(§9) The drug combination analysis was performed using the Chou-Talalay method. Graphs representing values of combination index (CI) versus Fractional effect (Fa) known as Fa-CI plots were generated and synergy was evaluated. Drug synergy was statistically defined by CI values less than 1, antagonism by CI>1 and additive effect by CI equal to 1.

[5] = tested on: SKM-1 (non-MLL-rearranged AML); assay: Combination proliferation study with Compound A2 (Examples 2/3), SKM-1; format: cell-based, human; conditions: in combination with Compound A2
Method: (§3) The HP-D300 digital dispenser (Tecan) was used to dispense compounds in a combinatorial matrix. […] Cell viability was measured via ATP content using CellTiter-Glo® (Promega).
(§4) Viability was determined using CellTiter-Glo® (Promega).

[6] = tested on: MOLM-13 cells; assay: Pre-treatment model with reverse order of addition (Ara-C first), MOLM-13; format: cell-based, human; conditions: Ara-C 3 days
Method: MOLM-13 cells were pretreated with 9 concentrations of Ara-C or DMSO for 3 days.
Cell viability was measured via ATP content using CellTiter-Glo® (Promega).
In addition, the effect of sequence of addition of compounds was studied by measuring the ten day proliferation of cells pretreated with Ara-C in a 3+7 model. This experiment was performed by first pretreating MOLM-13 cells with increasing concentrations of Ara-C for 3 days.

[7] = tested on: MV4-11 (MLL-AF4 expressing acute biphenotypic leukemia cell line); assay: Combination proliferation study with Compound A2 (Examples 2/3), MV4-11; format: cell-based, human; conditions: in combination with Compound A2; Chou-Talalay CI
Method: as §3, §4

[8] = tested on: MOLM-13 cells; assay: CD11b and CD14 expression by flow cytometry, MOLM-13; format: cell-based, human
Method: as §2
The cells were prepared by washing twice in PBS, followed by fixation in 4% formaldehyde for ten minutes at 37° C. After fixation cells were washed and blocked with blocking buffer for 10 minutes at room temperature. Cells were then incubated in presence of anti-CD14, anti-CD11b or anti-IgG antibody for 1 hour at room temperature while rotating. Cells were washed, re-suspended in PBS and 5,000 events were analyzed using ExpressPro software on the GuavaCyte Plus System.

[9] = tested on: MOLM-13 (MLL-AF9); assay: Proliferation assay and calculation of synergism (Example 5), MOLM-13; format: cell-based, human; conditions: for Combination with Compound A2, pre-treatment model with washout, MOLM-13: Compound A2 washed out prior to the addition of the SOC agent; for Combination with Compound A2, pre-treatment model, MOLM-13: no Compound A2 washout; for Combination with Compound A2, MOLM-13 (MLL-AF9): 7 Day Cotreatment Model, Chou-Talalay CI
Method: as §5, §6, §7, §8, §9

[10] = tested on: SKM-1 cells; assay: Proliferation assay and calculation of synergism (Example 5), SKM-1; conditions: combination with Compound A2
Description: The acute myelogenous leukemia cell line MV4-11 (MLL-AF4) (CRL-9591) was obtained from American Type Culture Collection (ATCC), Manassas, Va. and both MOLM-13 (MLL-AF9) (ACC 554) and SKM-1 (ACC 547) cells were obtained from Leibniz Institute DSMZ-German Collection of Microorganisms and Cell Cultures, Braunschweig, Germany. MV4-11 cells were maintained in IMDM supplemented with 10% fetal bovine serum. MOLM-13 and SKM-1 cells were maintained in Roswell Park Memorial Institute medium (RPMI) supplemented with 10% fetal bovine serum. They were cultured in flasks or plates in a humidified 5% CO2 atmosphere.
as §6, §7, §8, §9

[11] = tested on: Molm-13 (MLL-AF9 expressing acute myeloid leukemia); assay: Combination proliferation study with Compound A2 (Examples 2/3), MOLM-13; format: cell-based, human; conditions: for Combination studies with Compound A2, MOLM-13 MLL-AF9: in combination with Compound A2, Chou-Talalay CI
Method: as §3, §4

Row | SMILES | Combination effect with Compound A2 on proliferation, MV4-11 [1] | Combination with Compound A2, MV4-11 (MLL-AF4) [4] | Combination studies with Compound A2, SKM-1 AML: Non-rearranged [5] | Combination with Compound A2, MOLM-13 (MLL-AF9) [9] | also measured
1 | N[C@@H]1C[C@H]1c1ccccc1 (racemic) [Tranylcypromine] | synergy | – | – | – | Combination effect with Compound A2 on proliferation, MOLM-13 [2]: synergy
2 | Nc1ccn([C@@H]2O[C@H](CO)[C@@H](O)[C@@H]2O)c(=O)n1 [Ara-C, cytarabine] | Synergy (A combination index less than one indicates synergy) | Strong Synergy | No Combination | – | Apoptosis induction over 14 day course, single agent ([3]; 156 nM Compound A2 or 63 nM Ara-C): modest increase in apoptotic cell population; Apoptosis induction over 14 day course, combination with Compound A2 ([3]; 156 nM Compound A2 plus 63 nM Ara-C): enhance apoptosis; Sub-G1 cell population, combination with Compound A2 ([3]; 156 nM Compound A2 plus 63 nM Ara-C, 10 and 14 days): significant increase in the population of sub-G1 cells; Sub-G1 cell population, single agent ([3]; 14 day treatment, 156 nM Compound A2 or 63 nM Ara-C): minimal effect; Combination with Compound A2, Ara-C pretreatment then cotreatment ([6]; then Compound A2 and Ara-C 7 days): Synergy; Combination with Compound A2, Ara-C pretreatment then washout ([6]; washed out, then Compound A2 7 days): Combination benefit is maintained; Combination studies with Compound A2, MV4-11 MLL-AF4 [7]: Strong; Differentiation markers CD11b and CD14, combination with Compound A2 [8]: time and concentration dependent up-regulation; Differentiation markers CD11b and CD14, single agent [8]: time and concentration dependent up-regulation
3 | Nc1ncn([C@@H]2O[C@H](CO)[C@@H](O)[C@H]2O)c(=O)n1 [Azacitidine, azacitidine] | – | – | No Combination | – | –
4 | COc1cccc2c1C(=O)c1c(O)c3c(c(O)c1C2=O)C[C@@](O)(C(C)=O)C[C@@H]3O[C@H]1C[C@H](N)[C@H](O)[C@H](C)O1 [Daunorubicin, daunorubicin] | Synergy (A combination index less than one indicates synergy) | – | No Combination | – | Combination with Compound A2, pre-treatment model with washout, MOLM-13 [9]: synergistic anti-proliferative activity was maintained; Combination with Compound A2, pre-treatment model, MOLM-13 [9]: synergistic antiproliferative activity; Combination with Compound A2, pre-treatment model with washout, MV4-11 [4]: synergistic anti-proliferative activity was maintained; Combination with Compound A2, pre-treatment model, MV4-11 [4]: synergistic antiproliferative activity; Effect of Compound A2 on the antiproliferative activity of the second agent in SKM-1 [10]: did not affect the antiproliferative activity; Combination studies with Compound A2, SKM-1 AML: Non-rearranged ([5]; listed as daunorubicin): did not act synergistically; Combination studies with Compound A2, MOLM-13 MLL-AF9 [11]: acts synergistically; Combination studies with Compound A2, MV4-11 MLL-AF4 [7]: acts synergistically
5 | Nc1ncn([C@H]2C[C@H](O)[C@@H](CO)O2)c(=O)n1 [Decitabine, decitabine] | – | – | No Combination | – | –
6 | COc1cc2c(cc1-c1c(C)noc1C)ncc1[nH]c(=O)n([C@H](C)c3ccccn3)c12 [IBET-151] | Synergy (A combination index less than one indicates synergy) | – | IC50 not achieved | – | –
7 | Cc1sc2c(c1C)C(c1ccc(Cl)cc1)=N[C@@H](CC(=O)OC(C)(C)C)c1nnc(C)n1-2 [JQ1] | – | Additive (additive effect by CI equal to 1) | – | Additive (additive effect by CI equal to 1) | –
8 | Nc1cccc2c1CN(C1CCC(=O)NC1=O)C2=O (stereo not drawn) [Lenalidomide, lenalidomide] | – | Combination Benefit | – | Combination Benefit | –
9 | CN(Cc1cnc2nc(N)nc(N)c2n1)c1ccc(C(=O)N[C@@H](CCC(=O)O)C(=O)O)cc1 [Methotrexate, methotrexate] | – | Additive (additive effect by CI equal to 1) | – | Antagonistic/Additive | –
10 | O=C1c2c(O)ccc(O)c2C(=O)c2c(NCCNCCO)ccc(NCCNCCO)c21 [Mitoxantrone] | Synergy (A combination index less than one indicates synergy) | – | – | – | –
11 | CC1(C)CCC(c2ccc(Cl)cc2)=C(CN2CCN(c3ccc(C(=O)NS(=O)(=O)c4ccc(N[C@H](CCN5CCOCC5)CSc5ccccc5)c(S(=O)(=O)C(F)(F)F)c4)cc3)CC2)C1 [Navitoclax] | synergy | – | – | – | Combination effect with Compound A2 on proliferation, MOLM-13 [2]: synergy
12 | Cc1[nH]c2ccccc2c1CCNCc1ccc(/C=C/C(=O)NO)cc1 [Panobinostat] | – | Antagonistic (antagonism by CI>1) | – | – | –
13 | C[C@]12C=CC(=O)C=C1CC[C@@H]1[C@@H]2[C@@H](O)C[C@@]2(C)[C@H]1CC[C@]2(O)C(=O)CO [Prednisolone, prednisolone] | – | Antagonistic (antagonism by CI>1) | – | Antagonistic (antagonism by CI>1) | –
14 | CC(C)(C)c1cc(NC(=O)Nc2ccc(-c3cn4c(n3)sc3cc(OCCN5CCOCC5)ccc34)cc2)no1 [Quizartinib] | synergy | – | – | – | –
15 | CC(C)C[C@H](NC(=O)[C@H](Cc1ccccc1)NC(=O)c1cnccn1)B(O)O [Velcade, bortezomib] | – | Combination Benefit | – | Combination Benefit | –
16 | Nc1ncn([C@@H]2O[C@H](CO)[C@@H](O)[C@H]2O)c(=O)n1 [Vidaza] | Synergy (A combination index less than one indicates synergy) | – | – | – | –
17 | CC[C@]1(O)C[C@H]2CN(CCc3c([nH]c4ccccc34)[C@@](C(=O)OC)(c3cc4c(cc3OC)N(C=O)[C@H]3[C@@](O)(C(=O)OC)[C@H](OC(C)=O)[C@]5(CC)C=CCN6CC[C@]43[C@@H]65)C2)C1 [Vincristine, vincristine] | – | Additive (additive effect by CI equal to 1) | – | Additive (additive effect by CI equal to 1) | –
18 | O=C(CCCCCCC(=O)Nc1ccccc1)NO [Vorinostat] | – | Antagonistic (antagonism by CI>1) | – | Additive/Synergy | –
19 | Nc1ncn([C@@H]2O[C@H](CO)[C@@H](O)[C@H]2O)c(=O)n1 [azacytidine, Azacytidine] | – | synergistic anti-proliferative activity | – | synergistic anti-proliferative activity | Effect of Compound A2 on the antiproliferative activity of the second agent in SKM-1 [10]: no impact on the antiproliferative activity
20 | Nc1ccn([C@@H]2O[C@H](CO)[C@@H](O)[C@@H]2O)c(=O)n1 [cytarabine] | – | – | did not act synergistically | – | Combination with Compound A2, pre-treatment model with washout, MOLM-13 [9]: synergistic anti-proliferative activity was maintained; Combination with Compound A2, pre-treatment model, MOLM-13 [9]: synergistic antiproliferative activity; Combination with Compound A2, pre-treatment model with washout, MV4-11 [4]: synergistic anti-proliferative activity was maintained; Combination with Compound A2, pre-treatment model, MV4-11 [4]: synergistic antiproliferative activity; Effect of Compound A2 on the antiproliferative activity of the second agent in SKM-1 [10]: did not affect the antiproliferative activity; Combination with Compound A2, Compound A2 removed at day 7 ([11]; Molm-13, Compound A2 removed at day 7 prior to cytarabine): durable combination benefit; Combination studies with Compound A2, MOLM-13 MLL-AF9 [11]: acts synergistically; Combination studies with Compound A2, MV4-11 MLL-AF4 [7]: acts synergistically
